The target in one assay is T1, Caspase-3 (Homo sapiens, UniProt P42574).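 Also: Dose-response selectivity test against caspase-3 for candidate inhibitors of sentrin-specific proteases (SENPs).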
T1 sequence (P42574 whole entry): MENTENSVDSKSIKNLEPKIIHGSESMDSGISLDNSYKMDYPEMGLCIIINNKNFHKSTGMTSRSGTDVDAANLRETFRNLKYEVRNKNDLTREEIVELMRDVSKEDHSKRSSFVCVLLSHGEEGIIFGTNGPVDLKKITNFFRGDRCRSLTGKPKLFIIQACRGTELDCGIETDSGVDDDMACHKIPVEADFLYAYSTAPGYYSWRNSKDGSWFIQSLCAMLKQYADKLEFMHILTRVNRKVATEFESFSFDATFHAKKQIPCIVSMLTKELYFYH
It counts as functional.

For assay [1], the target named is T2, Sentrin-specific protease 7 (Homo sapiens, UniProt Q9BQF6).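 Also: Luminescence-based dose-response confirmation of ultra-high-throughput screening hits, measuring inhibition of SENP7.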
T2 sequence (Q9BQF6 whole entry): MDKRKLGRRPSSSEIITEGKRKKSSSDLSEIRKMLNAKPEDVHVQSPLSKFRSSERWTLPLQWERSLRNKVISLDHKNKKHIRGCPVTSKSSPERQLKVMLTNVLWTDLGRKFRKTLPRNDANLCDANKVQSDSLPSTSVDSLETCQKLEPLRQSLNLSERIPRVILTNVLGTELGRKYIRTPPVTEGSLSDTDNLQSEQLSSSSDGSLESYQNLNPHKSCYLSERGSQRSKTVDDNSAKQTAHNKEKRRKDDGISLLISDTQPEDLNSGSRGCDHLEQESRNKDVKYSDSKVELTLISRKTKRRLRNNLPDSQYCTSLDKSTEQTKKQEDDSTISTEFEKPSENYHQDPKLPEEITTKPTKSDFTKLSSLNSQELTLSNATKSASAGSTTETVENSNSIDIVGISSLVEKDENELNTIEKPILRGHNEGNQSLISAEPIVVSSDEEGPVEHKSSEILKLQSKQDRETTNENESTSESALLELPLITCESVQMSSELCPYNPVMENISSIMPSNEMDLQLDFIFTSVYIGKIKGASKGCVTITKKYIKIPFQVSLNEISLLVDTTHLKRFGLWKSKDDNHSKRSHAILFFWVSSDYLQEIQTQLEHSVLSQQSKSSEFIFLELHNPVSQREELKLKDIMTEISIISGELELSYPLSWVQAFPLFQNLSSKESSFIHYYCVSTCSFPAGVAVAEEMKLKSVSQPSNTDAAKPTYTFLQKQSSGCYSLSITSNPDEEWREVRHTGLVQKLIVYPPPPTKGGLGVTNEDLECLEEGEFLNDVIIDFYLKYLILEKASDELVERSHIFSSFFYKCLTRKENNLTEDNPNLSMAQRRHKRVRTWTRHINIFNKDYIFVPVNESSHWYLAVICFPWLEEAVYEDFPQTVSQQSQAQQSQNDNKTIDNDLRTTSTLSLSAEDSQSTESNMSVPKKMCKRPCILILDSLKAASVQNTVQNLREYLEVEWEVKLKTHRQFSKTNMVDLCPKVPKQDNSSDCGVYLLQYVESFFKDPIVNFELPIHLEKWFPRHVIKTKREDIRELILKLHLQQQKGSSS
It counts as functional.

Assay [2] concerns the target T3, Sentrin-specific protease 6 (Homo sapiens, UniProt Q9GZR1).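 Also: Luminescence-based dose-response confirmatory assay of SENP6 inhibition, following up an ultra-high-throughput screen.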
T3 sequence (Q9GZR1 whole entry): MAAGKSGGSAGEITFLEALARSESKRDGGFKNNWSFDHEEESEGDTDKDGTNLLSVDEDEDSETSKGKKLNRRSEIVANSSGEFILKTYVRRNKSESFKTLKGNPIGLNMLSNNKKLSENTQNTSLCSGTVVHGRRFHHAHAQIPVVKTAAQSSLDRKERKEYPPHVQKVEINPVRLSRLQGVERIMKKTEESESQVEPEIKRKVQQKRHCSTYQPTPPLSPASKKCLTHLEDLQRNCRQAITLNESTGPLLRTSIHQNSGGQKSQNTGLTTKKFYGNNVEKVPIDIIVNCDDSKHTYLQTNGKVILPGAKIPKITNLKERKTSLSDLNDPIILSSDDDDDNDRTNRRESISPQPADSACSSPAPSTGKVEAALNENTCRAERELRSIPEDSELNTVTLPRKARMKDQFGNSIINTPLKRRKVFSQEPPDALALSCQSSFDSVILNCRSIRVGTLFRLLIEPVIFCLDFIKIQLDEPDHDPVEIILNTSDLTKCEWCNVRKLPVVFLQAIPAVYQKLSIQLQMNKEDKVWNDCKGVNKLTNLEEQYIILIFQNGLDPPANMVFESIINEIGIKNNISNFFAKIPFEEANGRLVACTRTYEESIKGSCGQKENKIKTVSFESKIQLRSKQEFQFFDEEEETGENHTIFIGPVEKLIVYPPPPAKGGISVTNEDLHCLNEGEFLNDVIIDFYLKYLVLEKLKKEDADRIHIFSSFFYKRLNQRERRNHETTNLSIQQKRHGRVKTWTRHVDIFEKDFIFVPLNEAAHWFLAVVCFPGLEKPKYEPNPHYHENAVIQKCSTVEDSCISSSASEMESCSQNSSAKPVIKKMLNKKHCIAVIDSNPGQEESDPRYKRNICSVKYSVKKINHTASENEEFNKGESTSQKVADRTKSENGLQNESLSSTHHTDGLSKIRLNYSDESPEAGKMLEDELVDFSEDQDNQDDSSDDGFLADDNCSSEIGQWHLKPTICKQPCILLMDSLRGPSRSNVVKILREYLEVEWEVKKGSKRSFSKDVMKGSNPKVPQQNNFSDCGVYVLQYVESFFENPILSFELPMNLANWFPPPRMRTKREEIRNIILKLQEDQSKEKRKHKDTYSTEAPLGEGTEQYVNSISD
The assay is classed as functional.

The target in assay [3] is T4, Sentrin-specific protease 8 (Homo sapiens, UniProt Q96LD8).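 Also: luminescence read-out of SENP8 inhibition, dose-response confirmation following an ultra-high-throughput screen.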
T4 sequence (Q96LD8 whole entry): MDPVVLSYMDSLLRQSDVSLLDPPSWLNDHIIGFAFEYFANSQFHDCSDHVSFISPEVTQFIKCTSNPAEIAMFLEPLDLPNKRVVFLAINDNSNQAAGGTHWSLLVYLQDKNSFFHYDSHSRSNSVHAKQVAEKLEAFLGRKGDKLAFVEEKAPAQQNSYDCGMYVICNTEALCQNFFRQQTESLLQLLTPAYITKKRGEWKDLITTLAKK
It counts as functional.

The target of assay [4] is NAD-dependent protein deacylase sirtuin-5, mitochondrial (Homo sapiens, UniProt Q9NXA8). Put plainly: sirtuin-5 deacylation blockers, concentration series – biochemical, fluorescence imaging, cherry-pick, set 5, dose response (AID 720591).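 Also: desuccinylation of succinyl peptide AMC substrate read as fluorescence after trypsin release; potency of inhibitors that lower fluorescence and may act on trypsin instead.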
Chain of NAD-dependent protein deacylase sirtuin-5, mitochondrial (Q9NXA8 whole entry): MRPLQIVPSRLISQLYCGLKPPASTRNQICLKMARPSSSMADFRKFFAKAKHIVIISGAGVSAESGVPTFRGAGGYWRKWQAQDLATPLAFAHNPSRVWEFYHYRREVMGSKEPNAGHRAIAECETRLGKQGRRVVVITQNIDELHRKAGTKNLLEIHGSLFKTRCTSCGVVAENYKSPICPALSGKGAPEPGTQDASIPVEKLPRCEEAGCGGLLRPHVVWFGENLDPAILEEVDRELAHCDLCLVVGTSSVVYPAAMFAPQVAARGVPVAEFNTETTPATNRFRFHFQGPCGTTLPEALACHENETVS
For the next assay, the target named is Protein Tat (Human immunodeficiency virus type 1 group M subtype B (isolate HXB2)(HIV-1), UniProt P04608). The assay is classed as functional.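 Also: tat binding to TAR RNA read out by fluorescence polarization.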
Chain of Protein Tat (P04608 whole entry): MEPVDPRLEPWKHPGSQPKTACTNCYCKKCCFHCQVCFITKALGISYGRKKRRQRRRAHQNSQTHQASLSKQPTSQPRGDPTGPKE
Assay [5] is described as follows: HIV-1 Vif–A3G interaction blockers – biochemical, TR-FRET, GST-Vif 1-94, biotin-A3G peptide, dose response retest, primary screen (AID 1117319).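 Also: TR-FRET signal of purified GST-Vif binding a biotinylated A3G peptide; inhibitors lower the FRET signal by blocking Vif and A3G binding.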 The assay is classed as functional. Background: In TR-FRET formats the signal depends on donor and acceptor labels being close together.
In assay [6] the target is Mitogen-activated protein kinase 10 (Homo sapiens, UniProt P53779). Description: Dose response biochemical screening assay for inhibitors of c-Jun N-Terminal Kinase 3 (JNK3). [Related pubchem assays: 746 ].
Chain of Mitogen-activated protein kinase 10 (P53779 whole entry): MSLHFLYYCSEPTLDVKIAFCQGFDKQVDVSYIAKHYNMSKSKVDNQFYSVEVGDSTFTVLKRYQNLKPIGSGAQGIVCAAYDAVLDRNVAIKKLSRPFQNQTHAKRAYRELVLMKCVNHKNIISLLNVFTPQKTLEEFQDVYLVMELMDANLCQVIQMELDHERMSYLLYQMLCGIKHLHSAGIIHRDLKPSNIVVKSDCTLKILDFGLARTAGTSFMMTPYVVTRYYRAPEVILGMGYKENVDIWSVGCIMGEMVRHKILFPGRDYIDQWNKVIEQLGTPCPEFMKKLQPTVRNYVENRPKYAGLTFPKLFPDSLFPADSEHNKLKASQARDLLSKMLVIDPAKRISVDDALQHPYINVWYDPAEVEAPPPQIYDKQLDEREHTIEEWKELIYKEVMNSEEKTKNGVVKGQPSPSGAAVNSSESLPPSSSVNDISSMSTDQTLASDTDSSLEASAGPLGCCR
The next assay deals with Estrogen receptor beta (Homo sapiens, UniProt Q92731).
Chain of Estrogen receptor beta (Q92731 whole entry): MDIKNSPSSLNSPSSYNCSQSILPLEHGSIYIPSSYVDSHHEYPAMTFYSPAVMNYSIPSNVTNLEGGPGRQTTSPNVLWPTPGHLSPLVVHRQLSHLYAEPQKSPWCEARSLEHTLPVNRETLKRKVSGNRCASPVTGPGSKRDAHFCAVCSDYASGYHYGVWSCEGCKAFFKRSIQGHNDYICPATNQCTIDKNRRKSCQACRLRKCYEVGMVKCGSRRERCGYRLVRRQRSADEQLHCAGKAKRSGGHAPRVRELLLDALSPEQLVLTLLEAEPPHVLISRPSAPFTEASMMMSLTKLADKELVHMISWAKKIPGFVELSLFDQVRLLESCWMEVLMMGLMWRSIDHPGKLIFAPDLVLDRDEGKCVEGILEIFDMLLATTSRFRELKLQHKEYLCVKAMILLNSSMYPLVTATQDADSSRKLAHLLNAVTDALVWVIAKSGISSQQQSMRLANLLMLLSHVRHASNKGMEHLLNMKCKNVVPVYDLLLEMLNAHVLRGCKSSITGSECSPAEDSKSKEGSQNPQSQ
Assay [7] can be described thus: M. tuberculosis H37Rv growth inhibitors, H37Rv strain (AID 1626). The assay is classed as functional.
Assay [8] is described as follows: Trypanosoma cruzi growth suppression in host cells – NIH3T3 host cells, beta-gal luminescence, confirmation (AID 2044).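 Also: intracellular parasites grown in NIH/3T3 mouse fibroblasts as host cells; luminescent beta-galactosidase reporter signal from transgenic T. cruzi replicating inside host cells; inhibitors lower the luminescence signal.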 The assay is classed as functional, cell-based.
Assay [9] can be described thus: NIH3T3 cell viability loss – ATP luminescence, mouse fibroblasts, counter-screen, dose response (AID 2010).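 Also: cells exposed to compound for about 90 hours before reading.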 The assay is classed as functional, cell-based. (In general: Counterscreens check selectivity or assay interference.)
The next assay has as its target Cytochrome P450 2C19 (Homo sapiens, UniProt P33261). Put plainly: qHTS Assay for Inhibitors and Substrates of Cytochrome P450 2C19. [Related pubchem assays: 410 ]. It counts as ADME. Particulars: read-out: Potency. For orientation: Quantitative high-throughput screening tests each substance at several concentrations.
A short description of assay [10]: Luminescence-based cell-based high throughput dose response assay to identify activators of the DAF-12 from the parasite S. stercoralis (ssDAF-12). It counts as functional.
In assay [11] the target is T5, Oxysterols receptor LXR-beta (Homo sapiens, UniProt P55055).
T5 sequence (P55055 whole entry): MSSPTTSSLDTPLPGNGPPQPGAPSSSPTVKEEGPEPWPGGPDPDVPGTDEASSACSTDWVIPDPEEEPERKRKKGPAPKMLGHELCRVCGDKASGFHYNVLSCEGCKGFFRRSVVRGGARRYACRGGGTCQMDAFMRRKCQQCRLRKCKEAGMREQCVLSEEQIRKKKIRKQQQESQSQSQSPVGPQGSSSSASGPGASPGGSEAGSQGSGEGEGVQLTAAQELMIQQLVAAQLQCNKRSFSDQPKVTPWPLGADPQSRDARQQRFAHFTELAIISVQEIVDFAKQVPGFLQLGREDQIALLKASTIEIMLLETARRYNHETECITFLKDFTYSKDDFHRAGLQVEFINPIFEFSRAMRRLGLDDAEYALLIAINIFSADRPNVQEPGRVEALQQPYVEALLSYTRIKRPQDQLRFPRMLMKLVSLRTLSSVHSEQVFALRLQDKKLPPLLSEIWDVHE
Put plainly: LXR agonists, Gal4 luciferase reporter, dose response, counter-screen for ssDAF-12 agonist project, cell-based, luminescence, HEK293, S. stercoralis campaign (AID 720737). It counts as functional. The settings on record: read-out: IC50 (the source's name).

For assay [12], the target named is T6, Dual specificity protein phosphatase 6 (Rattus norvegicus, UniProt Q64346).
T6 sequence (Q64346 whole entry): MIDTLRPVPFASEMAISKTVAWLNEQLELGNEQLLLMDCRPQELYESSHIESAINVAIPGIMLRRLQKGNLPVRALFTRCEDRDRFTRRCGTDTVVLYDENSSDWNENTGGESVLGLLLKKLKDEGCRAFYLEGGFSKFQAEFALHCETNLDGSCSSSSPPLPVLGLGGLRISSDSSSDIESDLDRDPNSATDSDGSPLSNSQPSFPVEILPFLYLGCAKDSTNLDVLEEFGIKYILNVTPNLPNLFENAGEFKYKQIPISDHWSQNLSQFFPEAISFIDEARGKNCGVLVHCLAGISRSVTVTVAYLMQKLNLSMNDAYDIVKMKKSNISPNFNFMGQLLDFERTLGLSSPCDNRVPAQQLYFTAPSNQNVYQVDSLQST
Put plainly: inhibition of rat DUSP6 enzyme activity – biochemical, in vitro, primary screen (AID 425).

For a further assay, the target named is T7, Bcl-2-related protein A1 (Mus musculus, UniProt Q07440).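 Also: confirmatory dose–response counterscreen on Bfl-1, used to check hits from a UBC13 polyubiquitin inhibitor campaign.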
T7 sequence (Q07440 whole entry): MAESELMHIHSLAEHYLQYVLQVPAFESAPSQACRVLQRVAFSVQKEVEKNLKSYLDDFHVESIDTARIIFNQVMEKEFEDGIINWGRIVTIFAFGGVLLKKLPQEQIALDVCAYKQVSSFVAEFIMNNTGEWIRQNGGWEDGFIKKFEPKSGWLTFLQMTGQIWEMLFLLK
It counts as functional.

The target in assay [13] is T8, Ubiquitin-conjugating enzyme E2 N (Homo sapiens, UniProt P61088).
T8 sequence (P61088 whole entry): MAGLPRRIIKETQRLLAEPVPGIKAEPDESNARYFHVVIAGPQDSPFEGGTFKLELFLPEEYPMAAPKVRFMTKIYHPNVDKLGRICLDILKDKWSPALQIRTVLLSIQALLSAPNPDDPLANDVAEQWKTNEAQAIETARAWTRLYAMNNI
It counts as functional.

In assay [14] the target is T8, Ubiquitin-conjugating enzyme E2 N. The assay is classed as functional. This is another data set of the same source.

Calls of active or inactive are those of the source. A value given as a limit tells only on which side of the number the result lay.

Chain of Cytochrome P450 2C19 (P33261 whole entry): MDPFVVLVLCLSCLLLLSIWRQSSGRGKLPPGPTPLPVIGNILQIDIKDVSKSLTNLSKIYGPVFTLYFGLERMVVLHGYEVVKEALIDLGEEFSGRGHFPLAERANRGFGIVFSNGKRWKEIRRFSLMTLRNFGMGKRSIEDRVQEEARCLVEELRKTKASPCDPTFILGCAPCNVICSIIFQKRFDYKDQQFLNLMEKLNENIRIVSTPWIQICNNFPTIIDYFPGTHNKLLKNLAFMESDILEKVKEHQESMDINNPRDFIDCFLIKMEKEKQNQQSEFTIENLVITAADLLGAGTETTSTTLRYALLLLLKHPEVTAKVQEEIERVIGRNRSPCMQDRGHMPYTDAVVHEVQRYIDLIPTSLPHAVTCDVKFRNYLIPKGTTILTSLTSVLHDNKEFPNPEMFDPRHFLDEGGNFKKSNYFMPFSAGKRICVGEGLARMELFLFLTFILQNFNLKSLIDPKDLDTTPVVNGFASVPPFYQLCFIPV

Consider `Cc1c(NC(=O)c2ccc(NC(=O)C3CC3)cc2)cccc1C(=O)O`, for which the IC50 was 43.8 µM (active) on Caspase-3, 6.21 µM (active) in [1], 18.5 µM (active) in assay [2] and 25.8 µM (active) in assay [3]. In addition, the AC50 in [4] is 10.7 µM (active).
With `O=C(N/N=C/c1ccc[nH]1)c1cccnc1`, the IC50 (at Protein Tat; in assay [5]) was > 100 µM (active) in each case.
For the compound `Cc1ccc(C(=O)OCc2cc3ccccc3nc2O)cc1`, in [6], the IC50 was > 93.1 µM (not active).
Regarding `CCN1CCC(C(N)=O)CC1`, the concentration for half-maximal inhibition (IC50) against Estrogen receptor beta is on record as > 50 µM (not active).
As to `O=C(NCc1ccco1)c1cc2n(n1)C(C(F)(F)F)CC(c1ccc(Cl)c(Cl)c1)N2` (configuration not stated), the IC50 in assay [7] is > 100 µM (active). For the same compound, the EC50 in assay [8] was 3.86 µM (active); in assay [9], 7.67 µM (active).
Consider `COc1ccc(OC2C=CC(C#Cc3ccccc3)OC2CO)cc1` (configuration not stated), for which, at Cytochrome P450 2C19, the AC50 is 3.98 µM (inconclusive).
For the compound `CC(=O)NC(=S)Nc1ccccc1C(=O)NC1CCCCC1`, the IC50 in assay [10] is > 67.6 µM (inactive). The EC50 in assay [11] is > 67.6 µM (inactive).
`CC(=O)[C@@H]1[C@@H]2C(=O)N(c3ccc(F)c(Cl)c3)C(=O)[C@@H]2C2c3ccccc3C=CN21` (some centres not stated): the IC50 in assay [12] is > 100 µM (not active).
As for `O=C(CCNC(=O)c1ccccc1Cl)Nc1ccc(Br)c(C(F)(F)F)c1`, the IC50 in [10] was > 67.5 µM (inactive). In addition, in assay [11], the EC50 is > 67.5 µM (inactive).
Turning to `O=c1cc(CN2CCN(C/C=C/c3ccccc3)CC2)c2cc(O)ccc2o1`, the values for the EC50 (in assay [8]; in assay [9]; in “cells”) were < 0.1 µM (active), > 60 µM (not active) and 0.101 µM (active), respectively.
Regarding `CN(C)CCCN(C(=O)c1ccc(S(=O)(=O)N2CCCCCC2)cc1)c1nc2cc3c(cc2s1)OCCO3`, the EC50 is < 0.1 µM (active) in [8], > 60 µM (not active) in [9] and 0.201 µM (active) in “cells”. Also, the IC50 is > 20 µM (inactive) at Bcl-2-related protein A1, 4.41 µM (active) in assay [13] and 4.63 µM (active) in [14].

A word on the IC50: it is the concentration needed to halve the response being measured.

Values taken from ChEMBL document CHEMBL1201862, “PubChem BioAssay data set” (2004).
